In patent publication US7932262B2 (Novartis AG, priority 2006, dated 2011):
pEC50, pIC50: −log10 of the molar value. Each block holds one compound with its values, some of them ahead of it.

Legend:
PDK1 kinase = molecular target: T1, PDK1 kinase (Homo sapiens, UniProt O15530); test: PDK1 Kinase Alpha Screen Assay; assay type: biochemical; settings: PDK1 Kinase Alpha Screen Assay; read-out: PDK1 IC50
T1 sequence (O15530 1-556): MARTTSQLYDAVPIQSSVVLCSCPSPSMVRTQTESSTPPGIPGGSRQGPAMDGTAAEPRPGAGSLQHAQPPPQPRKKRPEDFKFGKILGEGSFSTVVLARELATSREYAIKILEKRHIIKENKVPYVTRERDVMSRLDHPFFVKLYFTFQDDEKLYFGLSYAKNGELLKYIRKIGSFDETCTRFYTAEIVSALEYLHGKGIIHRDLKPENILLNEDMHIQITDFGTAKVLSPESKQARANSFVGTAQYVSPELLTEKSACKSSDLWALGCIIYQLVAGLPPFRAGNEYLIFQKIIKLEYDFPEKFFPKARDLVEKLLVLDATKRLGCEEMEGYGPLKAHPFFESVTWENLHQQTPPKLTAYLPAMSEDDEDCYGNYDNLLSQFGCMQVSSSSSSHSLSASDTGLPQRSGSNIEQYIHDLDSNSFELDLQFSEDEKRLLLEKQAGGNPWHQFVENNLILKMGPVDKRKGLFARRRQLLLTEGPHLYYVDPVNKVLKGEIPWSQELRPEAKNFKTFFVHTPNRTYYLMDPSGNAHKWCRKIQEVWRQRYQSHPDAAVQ
Procedure, shortened: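 Compound in DMSO added to PDK1-4 peptide; PDK1/ATP mix starts reaction (final 50 nM peptide, 10 uM ATP). Runs 3-18 hours, stopped with 90 mM EDTA buffer. Antibody/bead mix added, developed overnight at room temperature, then AlphaScreen signal read.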

PC-3 cells = test: Cell Proliferation Assay (Cell Titer Glo), PC-3 cell line; assay type: cell-based; settings: Homo sapiens, PC-3, Cell Proliferation Assay, PC3; read-out: CPEC50 PC3
Procedure, shortened: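 PC-3 cells, 1000 cells/well, left to adhere 3-5 h, then exposed for 3 days at 37° C to compounds as 1:3 serial dilutions from 500× DMSO stocks diluted in growth medium. Medium then replaced with fresh medium and viability read by Cell Titer Glo luminescence.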

Compound: CC(C)NC(=O)c1ccc(Nc2ncc3cccc(OC4CCNCC4)c3n2)cc1F [Compound 439, 2-fluoro-N-isopropyl-4-(8-(piperidin-4-yloxy)quinazolin-2-ylamino)benzamide]
pIC50 (PDK1 kinase): > 5.30 | pEC50 (PC-3 cells): > 5.30

Compound: O=C(NC1CCOCC1)c1ccc(Nc2ncc3cccc(OC4CCNCC4)c3n2)cc1F [Compound 440, 2-fluoro-4-(8-(piperidin-4-yloxy)quinazolin-2-ylamino)-N-(tetrahydro-2H-pyran-4-yl)benzamide]
pIC50 (PDK1 kinase): > 5.30 | pEC50 (PC-3 cells): > 5.30

Compound: CN1CCN(c2ccc(-c3cccc4cnc(Nc5cccc(-c6cnco6)c5)nc34)cn2)CC1 [Compound 443, 8-(6-(4-methylpiperazin-1-yl)pyridin-3-yl)-N-(3-(oxazol-5-yl)phenyl)quinazolin-2-amine]
pIC50 (PDK1 kinase): > 5.30 | pEC50 (PC-3 cells): > 5.30

Compound: O=C(NC1CC1)c1ccc(Nc2ncc3cccc(OC4CCNCC4)c3n2)cc1F [Compound 444, N-cyclopropyl-2-fluoro-4-(8-(piperidin-4-yloxy)quinazolin-2-ylamino)benzamide]
pIC50 (PDK1 kinase): > 5.30 | pEC50 (PC-3 cells): > 5.30

Compound: O=C(c1ccc(Nc2ncc3cccc(OC4CCNCC4)c3n2)cc1F)N1CCOCC1 [Compound 447, (2-fluoro-4-(8-(piperidin-4-yloxy)quinazolin-2-ylamino)phenyl)(morpholino)methanone]
pIC50 (PDK1 kinase): > 5.30 | pEC50 (PC-3 cells): > 5.30

Compound: FC(F)(F)c1cc(Br)cc(Nc2ncc3cccc(OC4CCNCC4)c3n2)c1 [Compound 452, N-(3-bromo-5-(trifluoromethyl)phenyl)-8-(piperidin-4-yloxy)quinazolin-2-amine]
pIC50 (PDK1 kinase): > 5.30 | pEC50 (PC-3 cells): > 5.30

Compound: CC(C)NC(=O)c1cc(Nc2ncc3cccc(OC4CCNCC4)c3n2)cc(C(F)(F)F)c1 [Compound 453, N-isopropyl-3-(8-(piperidin-4-yloxy)quinazolin-2-ylamino)-5-(trifluoromethyl)benzamide]
pIC50 (PDK1 kinase): > 5.30 | pEC50 (PC-3 cells): > 5.30

Compound: O=C(c1cc(Nc2ncc3cccc(OC4CCNCC4)c3n2)cc(C(F)(F)F)c1)N1CCOCC1 [Compound 454, morpholino(3-(8-(piperidin-4-yloxy)quinazolin-2-ylamino)-5-(trifluoromethyl)phenyl)methanone]
pIC50 (PDK1 kinase): > 5.30 | pEC50 (PC-3 cells): 5.00 to 5.30

Compound: Fc1cc(Nc2ncc3cccc(OC4CCNCC4)c3n2)ccc1N1CCOCC1 [Compound 457, N-(3-fluoro-4-morpholinophenyl)-8-(piperidin-4-yloxy)quinazolin-2-amine]
pIC50 (PDK1 kinase): > 5.30 | pEC50 (PC-3 cells): > 5.30

Compound: CN1CCN(c2ccc(-c3cccc4cnc(Nc5ccc(N6CCOCC6)c(F)c5)nc34)cc2)CC1 [Compound 459, N-(3-fluoro-4-morpholinophenyl)-8-(4-(4-methylpiperazin-1-yl)phenyl)quinazolin-2-amine]
pIC50 (PDK1 kinase): > 5.30 | pEC50 (PC-3 cells): > 5.30

Compound: Fc1cc(Nc2ncc3cccc(C4=CCNCC4)c3n2)ccc1N1CCOCC1 [Compound 460, N-(3-fluoro-4-morpholinophenyl)-8-(1,2,3,6-tetrahydropyridin-4-yl)quinazolin-2-amine]
pIC50 (PDK1 kinase): > 5.30 | pEC50 (PC-3 cells): > 5.30

Compound: Cc1ccc(OC2CCNCC2)c2nc(Nc3ccc(S(N)(=O)=O)cc3)ncc12 [Compound 464, 4-(5-methyl-8-(piperidin-4-yloxy)quinazolin-2-ylamino)benzenesulfonamide]
pIC50 (PDK1 kinase): > 5.30 | pEC50 (PC-3 cells): 5.00 to 5.30

Compound: CN1CCN(c2ccc(-c3cccc4cnc(Nc5cc(C(=O)O)cc(C(F)(F)F)c5)nc34)cn2)CC1 [Compound 467, 3-(8-(6-(4-methylpiperazin-1-yl)pyridin-3-yl)quinazolin-2-ylamino)-5-(trifluoromethyl)benzoic acid]
pIC50 (PDK1 kinase): > 5.30 | pEC50 (PC-3 cells): > 5.30

Compound: CN1CCN(c2ccc(-c3cccc4cnc(Nc5cc(C(=O)N6CCCC6)cc(C(F)(F)F)c5)nc34)cn2)CC1 [Compound 468, (3-(8-(6-(4-methylpiperazin-1-yl)pyridin-3-yl)quinazolin-2-ylamino)-5-(trifluoromethyl)phenyl)(pyrrolidin-1-yl)methanone]
pIC50 (PDK1 kinase): 5.00 to 5.30 | pEC50 (PC-3 cells): > 5.30

Compound: c1cc(OC2CCNCC2)c2nc(Nc3ccc(N4CCOCC4)nc3)ncc2c1 [Compound 470, N-(6-morpholinopyridin-3-yl)-8-(piperidin-4-yloxy)quinazolin-2-amine]
pIC50 (PDK1 kinase): > 5.30 | pEC50 (PC-3 cells): > 5.30

Compound: Clc1cc(Nc2ncc3cccc(OC4CCNCC4)c3n2)ccc1N1CCOCC1 [Compound 471, N-(3-chloro-4-morpholinophenyl)-8-(piperidin-4-yloxy)quinazolin-2-amine]
pIC50 (PDK1 kinase): > 5.30 | pEC50 (PC-3 cells): > 5.30

Results, then the compound that gave them:

pIC50 (PDK1 kinase): > 5.30 | pEC50 (PC-3 cells): 5.00 to 5.30
Compound: O=C(O)c1ccc(Nc2ncc3cccc(OC4CCNCC4)c3n2)cc1F [Compound 441, 2-fluoro-4-(8-(piperidin-4-yloxy)quinazolin-2-ylamino)benzoic acid]

pIC50 (PDK1 kinase): > 5.30 | pEC50 (PC-3 cells): > 5.30
Compound: CC(=O)Nc1cccc(Nc2ncc3cccc(-c4ccc(N5CCN(C)CC5)nc4)c3n2)c1 [Compound 442, N-(3-(8-(6-(4-methylpiperazin-1-yl)pyridin-3-yl)quinazolin-2-ylamino)phenyl)acetamide]

pIC50 (PDK1 kinase): > 5.30 | pEC50 (PC-3 cells): > 5.30
Compound: COCCNC(=O)c1ccc(Nc2ncc3cccc(OC4CCNCC4)c3n2)cc1F [Compound 445, 2-fluoro-N-(2-methoxyethyl)-4-(8-(piperidin-4-yloxy)quinazolin-2-ylamino)benzamide]

pIC50 (PDK1 kinase): > 5.30 | pEC50 (PC-3 cells): > 5.30
Compound: CN(C)C(=O)c1ccc(Nc2ncc3cccc(OC4CCNCC4)c3n2)cc1F [Compound 446, 2-fluoro-N,N-dimethyl-4-(8-(piperidin-4-yloxy)quinazolin-2-ylamino)benzamide]

pIC50 (PDK1 kinase): > 5.30 | pEC50 (PC-3 cells): 5.00 to 5.30
Compound: NC(=O)c1cc(Nc2ncc3cccc(OC4CCNCC4)c3n2)ccc1N1CCOCC1 [Compound 448, 2-morpholino-5-(8-(piperidin-4-yloxy)quinazolin-2-ylamino)benzamide]

pIC50 (PDK1 kinase): > 5.30 | pEC50 (PC-3 cells): 5.00 to 5.30
Compound: O=C(O)c1cc(Nc2ncc3cccc(OC4CCNCC4)c3n2)ccc1N1CCOCC1 [Compound 449, 2-morpholino-5-(8-(piperidin-4-yloxy)quinazolin-2-ylamino)benzoic acid]

pIC50 (PDK1 kinase): > 5.30 | pEC50 (PC-3 cells): 5.00 to 5.30
Compound: O=C(O)c1cc(Nc2ncc3cccc(OC4CCNCC4)c3n2)cc(C(F)(F)F)c1 [Compound 450]

pIC50 (PDK1 kinase): > 5.30 | pEC50 (PC-3 cells): > 5.30
Compound: CCOC(=O)c1cc(F)cc(Nc2ncc3cccc(OC4CCNCC4)c3n2)c1 [Compound 451, ethyl 3-fluoro-5-(8-(piperidin-4-yloxy)quinazolin-2-ylamino)benzoate]

pIC50 (PDK1 kinase): > 5.30 | pEC50 (PC-3 cells): 5.00 to 5.30
Compound: CN(C)C(=O)c1cc(Nc2ncc3cccc(OC4CCNCC4)c3n2)ccc1N1CCOCC1 [Compound 455, N,N-dimethyl-2-morpholino-5-(8-(piperidin-4-yloxy)quinazolin-2-ylamino)benzamide]

pIC50 (PDK1 kinase): > 5.30 | pEC50 (PC-3 cells): > 5.30
Compound: O=C(NC1CC1)c1cc(Nc2ncc3cccc(OC4CCNCC4)c3n2)ccc1N1CCOCC1 [Compound 456, N-cyclopropyl-2-morpholino-5-(8-(piperidin-4-yloxy)quinazolin-2-ylamino)benzamide]

pIC50 (PDK1 kinase): > 5.30 | pEC50 (PC-3 cells): > 5.30
Compound: c1cc(OC2CCNCC2)c2nc(Nc3ccc(-c4cnco4)cc3)ncc2c1 [Compound 458, N-(4-(oxazol-5-yl)phenyl)-8-(piperidin-4-yloxy)quinazolin-2-amine]

pIC50 (PDK1 kinase): > 5.30 | pEC50 (PC-3 cells): > 5.30
Compound: CC(C)NC(=O)c1cc(F)cc(Nc2ncc3cccc(OC4CCNCC4)c3n2)c1 [Compound 461, 3-fluoro-N-isopropyl-5-(8-(piperidin-4-yloxy)quinazolin-2-ylamino)benzamide]

pIC50 (PDK1 kinase): > 5.30 | pEC50 (PC-3 cells): > 5.30
Compound: O=C(c1cc(F)cc(Nc2ncc3cccc(OC4CCNCC4)c3n2)c1)N1CCOCC1 [Compound 462]

pIC50 (PDK1 kinase): > 5.30 | pEC50 (PC-3 cells): > 5.30
Compound: CN1CCN(C(=O)c2cc(F)cc(Nc3ncc4cccc(OC5CCNCC5)c4n3)c2)CC1 [Compound 463, (3-fluoro-5-(8-(piperidin-4-yloxy)quinazolin-2-ylamino)phenyl)(4-methylpiperazin-1-yl)methanone]

pIC50 (PDK1 kinase): > 5.30 | pEC50 (PC-3 cells): > 5.30
Compound: c1cc(CN2CCOCC2)cc(Nc2ncc3cccc(-c4ccc(NCCN5CCCC5)nc4)c3n2)c1 [Compound 465, N-(3-(morpholinomethyl)phenyl)-8-(6-(2-(pyrrolidin-1-yl)ethylamino)pyridin-3-yl)quinazolin-2-amine]

pIC50 (PDK1 kinase): > 5.30 | pEC50 (PC-3 cells): > 5.30
Compound: CN1CCN(c2ccc(-c3cccc4cnc(Nc5ccc(N6CCOCC6)c(Cl)c5)nc34)cn2)CC1 [Compound 466, N-(3-chloro-4-morpholinophenyl)-8-(6-(4-methylpiperazin-1-yl)pyridin-3-yl)quinazolin-2-amine]

pIC50 (PDK1 kinase): > 5.30 | pEC50 (PC-3 cells): 5.00 to 5.30
Compound: C#Cc1ccc(OC2CCNCC2)c2nc(Nc3ccc(S(N)(=O)=O)cc3)ncc12 [Compound 469, 4-(5-ethynyl-8-(piperidin-4-yloxy)quinazolin-2-ylamino)benzenesulfonamide]
